# Counter-ions that a name gives are not always drawn.
# Legend:
# [1] = system: middle cerebral artery occlusion (MCAO) model; assay: Middle cerebral artery occlusion (MCAO) model, infarct area and volume by TTC stain; assay type: in vivo, male F-344 rats; details: 37 mg/kg IV 30 minutes and 24 hours after occlusion
# Excerpt: The model depends on a surgical procedure which is a modification of that originally proposed by A. Tamura, et al, "Focal Cerebral Ischemia in the Rat: Description of Technique and Early Neuropathological Consequences Following Middle Cerebral Artery Occlusion," J. Cerb. Blood Flow Metab. Vol. 1, pp. 53-60 and is similar to the methods described by Duverger and MacKenzie, "The Quantification of Cerebral Infarction Following Local Ischemia in the Rat: Influence of Strain, Arterial Pressure, Blood Glucose Concentration and Age", J. Cerb. Blood Flow Metab., Vol. 8, pp. 449-461 and S. Brint, et al, "Focal Brain Ischemia in the Rat: Methods for Reproducible Neocortical Infarction Using Tandem Occlusion of the Distal Middle Cerebral and Ipsilateral Common Carotid Arteries", J. Cereb. Blood Flow Metab., Vol. 8, pp. 474-485.
# Generally, male F-344 rats weighing 300-350 g are anesthetized in 2% halothane in room air. The right femoral vein is cannulated and the tubing led subcutaneously to an exit behind the neck to allow intravenous (IV) drug injection. The left common carotid is permanently occluded with a 6-0 silk ligature. The left middle cerebral artery (MCA) is exposed through a 2-mm burr hole drilled 1-2 mm rostral to the fusion of the zygomatic arch with the squamosal bone. The dura is cut, the MCA lifted off the surface of the brain, electrocauterized, and cut. The wound margins are sutured shut and the anesthesia stopped.
# The stable pharmaceutical composition is used for the assay or a solution for the assay may be prepared as follows: The hydrated fosphenytoin sodium (2.25 H₂O equivalent per mole) is dissolved in saline (pH = 7) at a concentration of 37 mg/mL and administered at 1 mL/kg. This dose of 37 mg/kg is equal to 30 mg/kg of the free base of fosphenytoin sodium. In vivo fosphenytoin sodium or the phenytoin prodrug undergoes a phosphate ester cleavage followed by a dehydroxymethylation to yield the free base of phenytoin. The dose administered is equivalent to 21 mg/kg of the free base of phenytoin.
# This solution is then administered intravenously (IV) 30 minutes and 24 hours after occlusion to groups of 12 animals each. Forty-eight hours following occlusion rats are anesthetized with ketamine (150 mg/kg, IP), decapitated, the brains rapidly removed, and placed on ice. With the aid of a brain mold (Activational Systems), the brain is sliced into four 2-mm sections: one section anterior (ANT) to the MCA and three sections posterior (ANT-MED, POST-MED, and POST) to the MCA. The sections are then placed for 30 minutes in a 2% solution of 2,3,5 triphenyltetrazolium chloride (TTC) in saline. The brains are stored in 10% neutral buffered […] for analysis.
# The brains are coded and the analysis is performed blinded. The area of infarction in each section is outlined with the aid of a morphometric analysis program (Bioquant IV, R & M Biometrics). The TTC stain is converted into a red marker in live mitochondria, while the infarcted area remains white. The total volume of infarction is calculated from the areas of the four sections assuming three truncated cones. The mean area for each section and the mean total volume are calculated; vehicle and drug treatment are compared using the Student's t-test.
# [2] = Compatibility with standard intravenous solutions (precipitate formation); assay type: physicochemical; details: solutions and mixes with standard intravenous solutions (dextrose, saline, Ringers lactate)
# Excerpt: Supplementary active ingredients can also be incorporated into the formulations of formula I and its salts. The formula I and its salts, and particularly fosphenytoin sodium, can be and is formulated so as to be compatible with the commonly used intravenous fluids including solutions based on dextrose, […] or 0.9% saline as well as more complicated solutions including/such as Ringers lactate, and the like.
# [3] = section posterior to the MCA, forty-eight hours following occlusion, mean ± standard deviation, N = 12
smiles,measurement,setting,value
"O=C1NC(c2ccccc2)(c2ccccc2)C(=O)N1COP(=O)(O)O [Disodium Salt of Prophenytoin, 3-(hydroxymethyl)-5,5-diphenylhydantoin disodium phosphate ester]","% Change, POST","[1]; area of infarction vs Vehicle, Probability 0.006",-71.56%
same,"% Change, POS-MED","[1]; area of infarction vs Vehicle, Probability 0.008",-57.10%
same,"% Change, ANT-MED","[1]; area of infarction vs Vehicle, Probability 0.049",-22.82%
same,"% Change, ANT","[1]; area of infarction vs Vehicle, Probability 0.160",-18.58%
same,TOTAL VOLUME of infarction,"[1]; calculated from the areas of the four sections, forty-eight hours following occlusion, mean ± standard deviation, N = 12",43.21 ±21.85
same,"area of infarction, ANT","[1]; section anterior to the MCA, forty-eight hours following occlusion, mean ± standard deviation, N = 12",9.03 ± 2.91
same,"area of infarction, ANT-MED",[1]; [3],11.23 ± 2.95
same,"area of infarction, POS-MED",[1]; [3],5.23 ± 5.44
same,"area of infarction, POST",[1]; [3],2.97 ± 4.39
same,"% Change, TOTAL VOLUME","[1]; total volume of infarction vs Vehicle, Probability 0.010",-42.07%
same,precipitate formation in standard intravenous solutions,[2],do not form precipitates
